Source: paper PMC8584349 (International Journal of Molecular Sciences, 2021)
Like-named read-outs stand apart in the source and are kept apart here.

Experiments:
authentic HCoV-229E [1] = assay: microbe, parasite or virus in culture; type: cell-based; details: Human coronavirus 229E; Huh-7 cell line; cells pretreated with 25-HC 8–12 h; CCK-8; read-out: IC50, inhibition of authentic HCoV-229E infection
SARS-CoV-2 PsV [2] = system: SARS-CoV-2 PsV
SARS-CoV-2 PsV [3] = assay: microbe, parasite or virus in culture; type: cell-based; details: Severe acute respiratory syndrome coronavirus 2; target cells pretreated with 25-HC 8–12 h; luciferase; read-out: IC50, inhibition of SARS-CoV-2 PsV infection
SARS-CoV-2 PsV [4] = assay: microbe, parasite or virus in culture
SARS-CoV PsV [5] = assay: microbe, parasite or virus in culture; type: cell-based; details: Severe acute respiratory syndrome coronavirus, read-out: IC50, inhibition of SARS-CoV PsV infection
MERS-CoV PsV [6] = details: in 25-HC/EK1 combination versus alone
MERS-CoV PsV [7] = assay: microbe, parasite or virus in culture; details: Middle East respiratory syndrome-related coronavirus
authentic HCoV-229E [8] = assay: Authentic virus inhibition assay, HCoV-229E in Huh-7 cells; type: cell-based; details: Huh-7 cell line, CCK8, triplicate, repeated twice, read-out: IC50, inhibition of HCoV-229E replication
Experimental: (§1) Inhibition of authentic coronaviruses was performed as previously reported. Briefly, authentic HCoV-OC43 or HCoV-229E was coincubated with a test peptide at different concentrations at 37 °C for 30 min. Then, these authentic virus–peptide mixtures were added into target cells in a 96-well plate (Huh-7 cell line for HCoV-229E, RD cell line for HCoV-OC43). CCK8 solution was used to assess virus-induced cytopathy when the cytopathic effect (CPE) of DMSO-treated target cells was clear and the IC50 value was calculated.

authentic HCoV-OC43 = assay: Authentic virus inhibition assay, HCoV-OC43 in RD cells; type: cell-based; details: RD cell line, CCK8, triplicate, repeated twice, read-out: IC50, inhibition of HCoV-OC43 replication
Experimental: as §1

SARS-CoV-2 VOC PsVs = details: 12 h
SARS-CoV PsV [9] = details: 12 h

| SMILES | IC50 (authentic HCoV-229E [1]) [µM] | dose reduction (SARS-CoV-2 PsV [2]; SARS-CoV-2 PsV, in 25-HC/EK1 combination versus alone) [fold] | IC50 (SARS-CoV-2 PsV [3]) [µM] | IC50 (SARS-CoV-2 PsV [4]; Severe acute respiratory syndrome coronavirus 2, read-out: IC50, tested alone) [µM] | IC50 (SARS-CoV-2 PsV [4]; Severe acute respiratory syndrome coronavirus 2, read-out: IC50, tested in EK1/25-HC combination) [µM] | IC50 (SARS-CoV PsV [5]) [nM] | dose reduction (MERS-CoV PsV [6]) [fold] | IC50 (MERS-CoV PsV [7]; read-out: IC50, tested alone) [µM] | IC50 (MERS-CoV PsV [7]; read-out: IC50, tested in EK1/25-HC combination) [µM] | IC50 (authentic HCoV-229E [8]) [nM] | IC50 (SARS-CoV-2 PsV [2]; PsV, 12 h) [nM] | IC50 (authentic HCoV-OC43) [nM] | IC50 (SARS-CoV-2 VOC PsVs) [nM] | IC50 (SARS-CoV PsV [9]) [nM] |
| --- | --- | --- | --- | --- | --- | --- | --- | --- | --- | --- | --- | --- | --- | --- |
| C[C@H](CCCC(C)(C)O)[C@H]1CC[C@H]2[C@@H]3CC=C4C[C@@H](O)CC[C@]4(C)[C@H]3CC[C@]12C [25-HC, 25-Hydroxycholesterol] | 5.35 | 3 | 4.11 | 9.3 | 3.7 | 2790 | 4 | 6.8 | 1.6 | – | – | – | – | – |
| CC[C@H](C)[C@H](NC(=O)[C@H](C)NC(=O)[C@H](CCC(=O)O)NC(=O)[C@H](CCC(=O)O)NC(=O)[C@H](CC(C)C)NC(=O)[C@H](CCCCN)NC(=O)[C@H](CCCCN)NC(=O)[C@H](CCSC)NC(=O)[C@H](CCC(=O)O)NC(=O)[C@H](Cc1ccc(O)cc1)NC(=O)[C@H](CCC(=O)O)NC(=O)[C@H](CC(C)C)NC(=O)[C@H](CC(=O)O)NC(=O)[C@H](CC(C)C)NC(=O)[C@H](Cc1ccccc1)NC(=O)[C@@H](NC(=O)[C@@H](NC(=O)[C@H](CC(N)=O)NC(=O)[C@@H](NC(=O)[C@H](CCC(N)=O)NC(=O)[C@H](CC(=O)O)NC(=O)[C@H](CC(C)C)NC(=O)[C@@H](N)CO)[C@@H](C)CC)C(C)C)[C@@H](C)O)C(=O)N[C@@H](CCCCN)C(=O)N[C@@H](CCCCN)C(=O)N[C@@H](CC(C)C)C(=O)N[C@@H](CCC(=O)O)C(=O)N[C@@H](CCC(=O)O)C(=O)N[C@@H](CO)C(=O)N[C@@H](Cc1ccc(O)cc1)C(=O)N[C@H](C(=O)N[C@@H](CC(=O)O)C(=O)N[C@@H](CC(C)C)C(=O)N[C@@H](CCCCN)C(=O)N[C@@H](CCC(=O)O)C(=O)N[C@@H](CC(C)C)C(=O)O)[C@@H](C)CC [EK1] | – | – | – | – | – | – | – | – | – | 2200 | 840 | 1510 | 480 to 4610 | 2800 |
